# According to patent US7737136B2 (N.V. Organon, priority 2002, dated 2010):
# pEC50: −log10 of the molar value. Read-outs that look alike come from different tables or passages of the source.
# Molecular target: T1, human progesterone receptor-B (Homo sapiens, UniProt P06401)
# T1 construct: expressed in transfected cells; host or cells: Chinese hamster ovary (CHO) cells, line CHO-PRB-pMMTV-LUC 1E2-A2
# T1 sequence (P06401 1-933): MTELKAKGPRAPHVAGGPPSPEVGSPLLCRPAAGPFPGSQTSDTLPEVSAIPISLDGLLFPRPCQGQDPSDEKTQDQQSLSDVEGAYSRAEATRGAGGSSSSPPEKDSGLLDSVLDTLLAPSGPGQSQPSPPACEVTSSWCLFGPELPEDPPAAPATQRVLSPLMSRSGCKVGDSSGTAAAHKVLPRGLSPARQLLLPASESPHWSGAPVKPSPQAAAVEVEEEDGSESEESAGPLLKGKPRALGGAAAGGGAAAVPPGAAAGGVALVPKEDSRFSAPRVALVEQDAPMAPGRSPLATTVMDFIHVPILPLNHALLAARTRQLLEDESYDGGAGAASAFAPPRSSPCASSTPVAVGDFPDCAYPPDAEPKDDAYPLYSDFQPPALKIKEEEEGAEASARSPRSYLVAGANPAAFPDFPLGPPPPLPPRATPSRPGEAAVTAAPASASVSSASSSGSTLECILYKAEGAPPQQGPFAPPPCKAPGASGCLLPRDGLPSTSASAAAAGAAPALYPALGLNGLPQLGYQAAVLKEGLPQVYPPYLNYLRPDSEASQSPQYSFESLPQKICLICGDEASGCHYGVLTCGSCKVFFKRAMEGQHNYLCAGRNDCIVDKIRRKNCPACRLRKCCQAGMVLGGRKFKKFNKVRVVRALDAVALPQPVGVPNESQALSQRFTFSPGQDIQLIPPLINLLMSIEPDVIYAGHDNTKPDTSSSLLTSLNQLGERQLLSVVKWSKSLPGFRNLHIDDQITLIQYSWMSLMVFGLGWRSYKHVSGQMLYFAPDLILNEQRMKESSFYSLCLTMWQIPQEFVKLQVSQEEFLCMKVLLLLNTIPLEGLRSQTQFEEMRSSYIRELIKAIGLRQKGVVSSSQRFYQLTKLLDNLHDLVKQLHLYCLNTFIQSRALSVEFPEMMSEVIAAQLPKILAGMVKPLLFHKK
# Test: Progesterone receptor-B transactivation assay, progestagenic (agonist) activity, CHO-PRB-pMMTV-LUC 1E2-A2 cells
# Type: cell-based
# Protocol: The (anti-)progestagenic activity of a compound of the invention (EC 50 and intrinsic activity) was determined in an in vitro bioassay of Chinese hamster ovary (CHO) cells stably transfected with the human progesterone receptor-B expression plasmid and with a reporter plasmid in which the MMTV-promoter is linked to the luciferase reporter gene. […] The cells were cultured with charcoal-treated supplemented defined bovine calf serum from Hyclone (Utah, USA) in Dulbecco's Modified Eagles Medium/Nutrient Mixture F-12 (DMEM/HAM F12 in ratio 1:1) from Gibco (Paisley, UK).
# [1] = CHO cells stably transfected with human progesterone receptor-B and MMTV-luciferase reporter, read-out: Progestagenic activity EC50
SMILES,pEC50 [1],pEC50
"N[C@H]1CCCN2c3cc(F)ccc3Oc3ccccc3[C@H]12 (relative stereo) [Example 1, trans-7-Fluoro-2,3,4,14b-tetrahydro-1H-dibenzo[b,f]pyrido[1,2-d][1,4]oxazepine-1-amine]",–,5.00 to 7.00
"N[C@H]1CCCN2c3cc(Cl)ccc3Oc3ccccc3[C@H]12 (relative stereo) [Example 3, trans-7-Chloro-2,3,4,14b-tetrahydro-1H-dibenzo[b,f]pyrido[1,2-d][1,4]oxazepine-1-amine]",5.00 to 7.00,–
"O=C(CF)N[C@H]1CCCN2c3cc(Cl)ccc3Oc3ccccc3[C@H]12 (relative stereo) [Example 11, trans-N-(7-Chloro-2,3,4,14b-tetrahydro-1H-dibenzo[b,f]pyrido[1,2-d][1,4]oxazepin-1-yl)-2-fluoroacetamide]",–,7.00 to 8.00
"S=CN[C@H]1CCCN2c3cc(Cl)ccc3Oc3ccccc3[C@H]12 (relative stereo) [Example 18, trans-N-(7-Chloro-2,3,4,14b-tetrahydro-1H-dibenzo[b,f]pyrido[1,2-d][1,4]oxazepin-1-yl)methanethioamide]",5.00 to 7.00,–
FC(F)(F)C(=S)N[C@H]1CCCN2c3ccccc3Oc3ccccc3[C@H]12 (relative stereo) [Example 25],> 8.00,–
FC(F)(F)C(=S)N[C@H]1CCCN2c3c(ccc(Cl)c3Cl)Oc3ccccc3[C@H]12 (relative stereo) [Example 26],> 8.00,–
"CC(C)CN[C@H]1CCCN2c3cc(Cl)ccc3Oc3ccccc3[C@H]12 (relative stereo) [Example 36, trans-N-(2-Methylpropyl)-7-chloro-2,3,4,14b-tetrahydro-1H-dibenzo[b,f]pyrido[1,2-d][1,4]oxazepine-1-amine]",5.00 to 7.00,–
"CCCN[C@H]1CCCN2c3cc(Cl)ccc3Oc3ccccc3[C@H]12 (relative stereo) [Example 37, trans-N-Propyl-7-chloro-2,3,4,14b-tetrahydro-1H-dibenzo[b,f]pyrido[1,2-d][1,4]oxazepine-1-amine]",–,5.00 to 7.00
"CS(=O)(=O)N(c1cc2c(cc1Cl)N1CCC[C@H](NC(=O)C(F)(F)F)[C@H]1c1ccccc1O2)S(C)(=O)=O (relative stereo) [Example 44, trans-N-(7-Chloro-2,3,4,14b-tetrahydro-8-[bis(methylsulfonyl)amino]-1H-dibenzo[b,f]pyrido[1,2-d][1,4]oxazepin-1-yl)-2,2,2-trifluoroacetamide]",5.00 to 7.00,–
"CC(C)(C)OC(=O)Nc1cc2c(cc1Cl)N1CCC[C@H](NC(=O)C(F)(F)F)[C@H]1c1ccccc1O2 (relative stereo) [Example 46, trans-N-(7-Chloro-2,3,4,14b-tetrahydro-1-(2,2,2-trifluoroacetylamino)1H-dibenzo[b,f]pyrido[1,2-d][1,4]oxazepin-8-yl)carbamic Acid 1,1-dimethylethyl Ester]",7.00 to 8.00,–
"CC(=O)N[C@H]1CCCN2c3c(ccc(Cl)c3Cl)Oc3ccccc3[C@H]12 (relative stereo) [Example 47, trans-N-(6,7-Dichloro-2,3,4,14b-tetrahydro-1H-dibenzo[b,f]pyrido[1,2-d][1,4]oxazepin-1-yl)acetamide]",> 8.00,–
"CC(=O)c1cc(F)cc2c1N1CCC[C@H](NC(=O)C(F)(F)F)[C@H]1c1ccccc1O2 (relative stereo) [Example 57, trans-N-(6-Acetyl-8-fluoro-2,3,4,14b-tetrahydro-1H-dibenzo[b,f]pyrido[1,2-d][1,4]oxazepin-1-yl)-2,2,2-trifluoroacetamide]",> 8.00,–

# The next lines start with results.
pEC50 [1],SMILES,pEC50
> 8.00,"O=C(N[C@H]1CCCN2c3cc(Cl)ccc3Sc3ccccc3[C@H]12)C(F)(F)F (relative stereo) [Example 6, trans-2,2,2-Trifluoro-N-(7-chloro-2,3,4,14b-tetrahydro-1H-dibenzo[b,f]pyrido[1,2-d][1,4]thiazepin-1-yl)acetamide]",–
5.00 to 7.00,"NCC(=O)N[C@H]1CCCN2c3cc(Cl)ccc3Oc3ccccc3[C@H]12 (relative stereo) [Example 16, trans-2-Amino-N-(7-chloro-2,3,4,14b-tetrahydro-1H-dibenzo[b,f]pyrido[1,2-d][1,4]oxazepin-1-yl)acetamide]",–
> 8.00,FC(F)(F)C(=S)N[C@H]1CCCN2c3cc(Cl)ccc3Oc3ccccc3[C@H]12 (relative stereo) [Example 19],–
> 8.00,FC(F)C(=S)N[C@H]1CCCN2c3cc(Cl)ccc3Oc3ccccc3[C@H]12 (relative stereo) [Example 23],–
5.00 to 7.00,NCC(=S)N[C@H]1CCCN2c3cc(Cl)ccc3Oc3ccccc3[C@H]12 (relative stereo) [Example 27],–
5.00 to 7.00,"CN(C(=O)C(F)(F)F)[C@H]1CCCN2c3cc(Cl)ccc3Oc3ccccc3[C@H]12 (relative stereo) [Example 28, trans-N-(7-Chloro-2,3,4,14b-tetrahydro-1H-dibenzo[b,f]pyrido[1,2-d][1,4]oxazepin-1-yl)-2,2,2-trifluoro-N-methylacetamide]",–
5.00 to 7.00,"O=C(N[C@H]1CCCN2c3cc(Cl)ccc3Oc3ccccc3[C@H]12)OCCl (relative stereo) [Example 30, Trans-(7-Chloro-2,3,4,14b-tetrahydro-1H-dibenzo[b,f]pyrido[1,2-d][1,4]oxazepin-1-yl)carbamic Acid Chloromethyl Ester]",–
> 8.00,"O=C(N[C@H]1CCCN2c3c(ccc(Cl)c3Cl)Oc3ccccc3[C@H]12)C(F)(F)F (relative stereo) [Example 38B, trans-N-(6,7-Dichloro-2,3,4,14b-tetrahydro-1H-dibenzo[b,f]pyrido[1,2-d][1,4]oxazepin-1-yl)-2,2,2-trifluoroacetamide]",–
5.00 to 7.00,O=C(N[C@H]1CCCN2c3c(Cl)cccc3Oc3ccccc3[C@H]12)C(F)(F)F (relative stereo) [Example 42B],–
7.00 to 8.00,"O=C(N[C@H]1CCCN2c3cc(Cl)c(NS(=O)(=O)c4ccccc4)cc3Oc3ccccc3[C@H]12)C(F)(F)F (relative stereo) [Example 45, trans-N-(7-Chloro-2,3,4,14b-tetrahydro-8-[(phenylsulfonyl)amino]-1H-dibenzo[b,f]pyrido[1,2-d][1,4]oxazepin-1-yl)-2,2,2-trifluoroacetamide]",–
> 8.00,"O=C(N[C@H]1CCCN2c3c(Br)cccc3Oc3ccccc3[C@H]12)C(F)(F)F (relative stereo) [Example 51, trans-N-(6-Bromo-2,3,4,14b-tetrahydro-1H-dibenzo[b,f]pyrido[1,2-d][1,4]oxazepin-1-yl)-2,2,2-trifluoroacetamide]",–
> 8.00,"CC(=O)c1cccc2c1N1CCC[C@H](NC(=O)C(F)(F)F)[C@H]1c1ccccc1O2 (relative stereo) [Example 52, trans-N-(6-Acetyl-2,3,4,14b-tetrahydro-1H-dibenzo[b,f]pyrido[1,2-d][1,4]oxazepin-1-yl)-2,2,2-trifluoroacetamide]",–
> 8.00,"N#Cc1cccc2c1N1CCC[C@H](NC(=O)C(F)(F)F)[C@H]1c1ccccc1O2 (relative stereo) [Example 53, trans-2,3,4,14b-Tetrahydro-1-[(trifluoroacetyl)amino]-1H-dibenzo[b,f]pyrido[1,2-d][1,4]oxazepine-6-carbonitrile]",–
> 8.00,"C=Cc1cccc2c1N1CCC[C@H](NC(=O)C(F)(F)F)[C@H]1c1ccccc1O2 (relative stereo) [Example 54, trans-N-(6-Ethenyl-2,3,4,14b-tetrahydro-1H-dibenzo[b,f]pyrido[1,2-d][1,4]oxazepin-1-yl)-2,2,2-trifluoroacetamide]",–
7.00 to 8.00,"COc1cccc2c1N1CCC[C@H](NC(=O)C(F)(F)F)[C@H]1c1ccccc1O2 (relative stereo) [Example 55, trans-N-(2,3,4,14b-Tetrahydro-6-methoxy-1H-dibenzo[b,f]pyrido[1,2-d][1,4]oxazepin-1-yl)-2,2,2-trifluoroacetamide]",–
5.00 to 7.00,"O=C(N[C@H]1CCCN2c3c(Br)cc(F)cc3Oc3ccccc3[C@H]12)C(F)(F)F (relative stereo) [Example 56, trans-N-(6-Bromo-8-fluoro-2,3,4,14b-tetrahydro-1H-dibenzo[b,f]pyrido[1,2-d][1,4]oxazepin-1-yl)-2,2,2-trifluoroacetamide]",–
> 8.00,"N#Cc1cc(F)cc2c1N1CCC[C@H](NC(=O)C(F)(F)F)[C@H]1c1ccccc1O2 (relative stereo) [Example 58, trans-8-Fluoro-2,3,4,14b-tetrahydro-1-[(trifluoroacetyl)amino]-1H-dibenzo[b,f]pyrido-[1,2-d][1,4]oxazepine-6-carbonitrile]",–
